Source: patent US20230210888A1, “PHOTOTHERANOSTIC NANOAGENTS WITH EXCELLENT ATHEROSCLEROTIC PLAQUE-TARGETING AND PLAQUE-PENETRATING PROPERTIES, AND USE THEREOF” (Korea University Research and Business Foundation, priority 2021, published 2023)

Legend:
[1] = Skin phototoxicity after intravenous injection and 670 nm laser; type: in vivo, Balb/c mice; details: 2 mg/kg (equiv. of Ce6) iv, 670 nm 50 mW/cm2 5 min 1 h after injection; 2nd and 3rd days
Experimental: One hour after injection, a near-infrared (670 nm) laser (50 mW/cm^2) was irradiated for 5 minutes.

[2] = Singlet oxygen generation (SOSG fluorescence) under 670 nm laser; type: physicochemical; details: PBS with 1% Tween 20, 5 μM based on Ce6, 670 nm 50 mW/cm2, 0-120 s
Experimental: All three solutions contained 1 μM SOSG. The fluorescence intensity of SOSG (Ex(excitation)/Em(emission): 504 nm/525 nm) was measured by irradiating a laser (670 nm, 50 mW/cm^2) every 30 seconds from 0 to 120 seconds.

(17S,18S)-18-(2-carboxyethyl)-20-(carboxymethyl)-12-ethenyl-7-ethyl-3,8,13,17-tetramethyl-17,18,22,23-tetrahydroporphyrin-2-carboxylic acid [Ce6]
skin phototoxicity (erythema) [1]: erythema occurred | SOSG fluorescence intensity (singlet oxygen generation) [2]: tendency to increase similarly to each other
